Where “and” joins values, the source holds several entries; their conditions need not be identical. Identical values can stand only once. Starred links: 1 amine or outer side, 2 acyl side, 3 side chain; linkers in the order of their positions; H or OH if unused. Positions of bridges follow the written chain, without caps; N, C: chain ends. Non-standard residues stand in square brackets, D forms with d. Residues, ends and D or L forms follow the SMILES beside them. Chains are numbered I, II in the order given. Actinocin(9to1) = Cc1c2oc3c(C)ccc(C(=O)[*:1])c3nc-2c(C(=O)[*:2])c(N)c1=O; NMeV = CN[C@H](C(=O)O)C(C)C; Sar = CNCC(=O)O
Key:
DNA = details: literature values; cited from earlier work
plasmid DNA [1] = experiment: Plasmid DNA breakage, ^123I/^125I double isotope method; type: biochemical
From the text: The experimental design exploits the plasmid DNA assay system, and agarose gel electrophoresis, as described previously to evaluate DNA breakage by the labelled minor groove binding DNA ligand, ^125I-iodoHoechst 33258 (Lobachevsky, Karagiannis and Martin 2004).
The accumulation of DNA single-stranded breaks and DNA double-stranded breaks is monitored by quantitation of the decline in the fraction of intact supercoiled plasmid (S), and the corresponding increase in the fractions of relaxed (R) and linear (L) species, with the progressive accumulation of decay events. Various assumptions enable the derivation of the relationship between the parameters S, R and L (or their normalised counterparts S′, R′ and L′), the number of decay events (n), and for example, the yield of double-stranded breaks per decay (d) of isotope in DNA-bound ligand. […] Accordingly, a double isotope strategy was developed, using a mixture of ^123I- and ^125I-iodoHoechst 33258. This approach yields a ratio d values, providing an estimate of the relative efficiency (^123I relative to ^125I) for double-strand breaks per decay, which is independent of f.
The basis of the double isotope method is apparent from the following relationship:
Where n1 is the number of ^123I decays, and n1m is the maximum (ie at time=infinity) number of ^123I decays.
A plot of the LHS term of the above equation versus n2 (the number of ^125I decay events in the incubation mixture) yields a two phase curve, the 2nd phase of which approaches a straight line (when n1=n1m). The values for the apparent breakage DNA dsb efficiency of ^123I and ^125I decays (da1 and da2, respectively) are obtained from the y intercept and from the gradient of the asymptote of the second phase of the curve, as shown in FIG. 14.
The apparent breakage efficiency is related to the actual efficiency of DNA-bound decay events, d, by the expression: da=df+δA
Where δA is the term for the “external” component of damage, arising from decay of non-DNA-bound isotope, which can be ignored because of the particular conditions of the
[formula] experiment, particularly, a low DNA concentration, A. Thus analysis of the data as exemplified in FIG. 14 provides the ratio of breakage efficiencies of ^123I versus ^125I decays.

K562 cells [2] = details: survival curve studies (Karagiannis, Lobachevsky and Martin 2000); cited from earlier work
K562 cells [3] = experiment: Clonogenic survival of K562 cells after ^125I-ligand incubation; type: cell-based, human; details: 20 hours at 37° C., 200 nM protein
Protocol: K562 cells were washed three times in serum-free RPMI 1640 containing 20 mM HEPES and 80 I.U./ml gentamicin. In the representative experiment, cells (5×10^5 per ml) were incubated with a series of radioactive doses of ^125I-diferric transferrin (highest dose 3.8 μCi/ml; specific activity 18.9 Ci/mmole, 200 nM protein concentration) or with a series of radioactive doses of the required meta-^127I/^125I-iodoHoechst-transferrin conjugate (highest doses 17.5, 10.1 and 18.3 μCi/ml, specific activities 87.5, 53.3 and 98 Ci/mmole protein for the disulphide, acylhydrazone and amide linked meta-^127I/^125I-iodoHoechst-transferrin conjugates, respectively, protein concentration 200 nM, conjugation number 2.8, 2.9 and 3.1 for the disulphide, acylhydrazone and amide linked conjugates, respectively) for 20 hours at 37° C. To ensure that cytotoxicity was mediated by decay of ^125I, control assays were performed in parallel with unlabelled meta-^127I-iodoHoechst-transferrin conjugates. Furthermore, to determine whether the ^125I-induced cytotoxicity was mediated by transferrin receptor-mediated endocytosis, control assays were performed in parallel in the presence of a 50-fold molar excess of unlabelled diferric transferrin. Following incubation, the cell-pellets were isolated by centrifugation at 400×g for 3 minutes and suspended in the α-modification of Eagle's medium containing 20% (v/v) fetal bovine serum, 20 mM HEPES, 2 mM L-glutamine and 80 I.U./ml gentamicin. An appropriate cell number from each of the samples was then cloned in semi-solid (0.33% (w/v)) noble agar in 6-well microtiter plates.

K562 cells [4] = experiment: Accumulation of cell-associated ^125I-activity in K562 cells; type: cell-based, human; details: 200 nM protein, 37° C.
Protocol: At the required time intervals (0-20 hours), the cell-associated and extracellular ^125I-ligands were separated by centrifugation at 400×g for 3 minutes and the cell-associated ^125I-activity and the ^125I-activity in the supernatants were counted in a […] (80% counting efficiency; Perkin Elmer Inc.). To elucidate whether the meta-^127I/^125I-iodoHoechst-transferrin conjugates were internalized specifically via transferrin receptor mediated endocytosis, assays were performed in parallel in the presence of 100-fold molar excess of unlabelled diferric transferrin.
In parallel with the experiment described in Example 19, cultures of K562 cells with one of the three labeled DNA ligand—transferring conjugates were incubated at 0° C., a condition that inhibits receptor-mediated endocytosis. Other assays were performed in parallel at 37° C. in the presence of the metabolic inhibitors […] (50 mM) and sodium azide (0.1% (w/v)), which are known to inhibit transferrin receptor mediated endocytosis (Ciechanover, et al. 1983).

K562 nuclei [5] = experiment: Accumulation of nuclear-associated ^125I-activity in K562 nuclei; type: cell-based, human; details: 200 nM protein, 37° C.
Protocol: After incubation for 5 minutes at 0° C., an equal volume of hypotonic buffer containing 1% (v/v) Triton X-100 was added while vortexing, and the cells were sheared by passage through a 22-gauge needle. The nuclei were separated from the cytosol by centrifugation at 1000×g for 10 minutes and the nuclear preparations were washed in hypotonic buffer and pipetted to avoid clumping. The concentration of nuclei isolated from each sample was determined by counting with a hemocytometer and the nuclear- and cytoplasm-associated ^125I-activity was determined by β-counting. In parallel assays, the nuclei were washed with 10 mM Tris-HCl, 140 mM NaCl, pH 8.3 (isotonic buffer) by centrifugation at 1000×g for 10 minutes and the nuclear associated ^125I-activity and the ^125I-activity in the supernatants was determined by β-counting.

plasmid DNA [6] = experiment: Plasmid DNA breakage, ^124I/^125I double isotope experiments; type: biochemical
From the text: In experiments exactly analogous to those described in Example 25, induction of DNA double-strand breaks was investigated for ^124I-iodoHoechst 33258. The results of preliminary experiments (to our knowledge the first such experiments done with DNA-associated ^124I) are shown in FIG. 15 and Table 4.

K562 nuclei [7] = experiment: Nuclear fluorescence of K562 cells after photolytic deiodination (quantitative fluorescence microscopy); type: cell-based, human
Protocol: The delivery of ortho-iodoHoechst to K562 nuclei following incubation of cells with the acylhydrazone linked transferrin-ortho-iodoHoechst conjugate was examined by quantitative fluorescence microscopy, after photolytic deiodination. K562 cells in RPMI 1640 containing 3% FBS, 20 mM HEPES and 80 I.U./ml gentamicin were incubated with the acylhydrazone linked conjugate ([…], conjugation number 1.5) for 24 hours at 37° C. Following incubation the cells were irradiated with 200 Jm^−2 UVA to generate in situ the dehalogenated ligand, which is much more fluorescent than the iodinated ligand. The cells were then washed by centrifugation and the cell-pellet was resuspended in 50 μl PBS without Ca^2+/Mg^2+. Aliquots (20 μl) were placed onto microscope slides and were allowed to air-dry. Prior to microscopy a drop of 30% PBS and 100 μM dithiothreitol in Tissuetek was added to the cells. K562 cells were observed using a fluorescence microscope (Zeiss) and a standard Hoechst filter set. Analysis of nuclear fluorescence was performed using a Bio-Rad Molecular Imager® Fx (Bio-Rad Laboratories, Hercules, Calif., USA) and Quantity One™ 4.1.1 software.

[8] = incubation period between 4-20 hours

For `COc1cccc2c1C(=O)c1c(O)c3c(c(O)c1C2=O)C[C@@](O)(C(=O)CO)C[C@@H]3O[C@H]1C[C@H](N)[C@H](O)[C@H](C)O1` [doxorubicin], the “association constant for equilibrium binding to DNA (affinity)” value (DNA) is given as “about 10^6 M^−1”.

For `CN1CCN(c2ccc3nc(-c4ccc5nc(-c6ccc(O)c(I)c6)[nH]c5c4)[nH]c3c2)CC1` [^125I-iodoHoechst 33258, reference compound], the “da2(^125I), apparent DNA dsb breakage efficiency” value (plasmid DNA [1]; DMSO added to 10% (D series)) is given as 0.252 and 0.248 and 0.258, the “da2(^125I), apparent DNA dsb breakage efficiency” value (plasmid DNA [1]; aqueous buffer (N series)) is given as 0.413 and 0.397 and 0.474 and the “decays corresponding to a lethal event” value (K562 cells [2]) is given as “about 130 ^125I decays per nucleus”.

In the case of “acylhydrazone linked meta-^127I/^125I-iodoHoechst-transferrin conjugate: meta-^127I/^125I-iodoHoechst conjugated to thiolated transferrin via an acylhydrazone linkage (Example 15, FIG. 3)”, the “dose required to produce on average one lethal event per cell (D37)” value (“dose required to produce … per cell (D37)” for short) (K562 cells [3]) was 3.8 μCi/ml, the “rate of increase of cell-associated ^125I-activity” value (K562 cells [4]; first 4 hours of incubation) was ~10.4 fmoles ^125I-ligand/cell/minute and the “rate of increase of cell-associated ^125I-activity” value (K562 cells [4]; [8]) was ~5.7 fmoles ^125I-ligand/cell/minute. For the same compound, the “rate of increase of nuclear-associated ^125I-activity” value (K562 nuclei [5]) was 0.38 fmole ^125I-ligand/cell/minute.

With “^125I-transferrin: ^125I-labelled human diferric transferrin, unconjugated comparator [reference compound]” the “dose required to produce … per cell (D37)” value (K562 cells [3]) was 31.8 μCi/ml, the “rate of increase of cell-associated ^125I-activity” value (K562 cells [4]; after first 2 hours until approximately 4-5 hours) was “approximately 0.8 fmoles ^125I-ligand/cell/minute” and the “rate of increase of cell-associated ^125I-activity” value (K562 cells [4]; approximately the first 2 hours of incubation) was “approximately 5.2 fmoles ^125I-ligand/cell/minute”. For the same compound, the “rate of decrease in cell-associated ^125I-activity” value (K562 cells [4]; incubation period between 5-20 hours) was “approximately 0.2 fmoles ^125I-ligand/cell/minute” and the “accumulation of ^125I-activity in the nuclei” value (K562 nuclei [5]) was “not observed”.

In the case of `CN1CCN(c2ccc3nc(-c4ccc5nc(-c6ccc(O)c(I)c6)[nH]c5c4)[nH]c3c2)CC1` [^124I-iodoHoechst 33258], the “efficiency of DNA-associated decays in DNA double-strand break induction” value (plasmid DNA [6]; compared with the ^123I counterpart) was “at least as efficient as those of the ^123I counterpart”, the “da1(^124I)/da2(^125I)” value (plasmid DNA [6]; preliminary experiments) was 0.76 and 0.71 and 0.82 and 0.75 and the “Average da1(^124I)/da2(^125I)” value (plasmid DNA [6]; samples A2, A3, B1, B2) was 0.76 ± 0.05.

For “amide linked meta-^127I/^125I-iodoHoechst-transferrin conjugate: meta-^127I/^125I-iodoHoechst conjugated to transferrin via an amide linkage (Example 16, FIG. 4)”, the “dose required to produce … per cell (D37)” value (K562 cells [3]) was 8.9 μCi/ml, the “rate of increase of cell-associated ^125I-activity” value (K562 cells [4]; first 4 hours of incubation) was ~3.6 fmoles ^125I-ligand/cell/minute and the “rate of increase of cell-associated ^125I-activity” value (K562 cells [4]; [8]) was ~2.6 fmoles ^125I-ligand/cell/minute. The “rate of increase of nuclear-associated ^125I-activity” value (K562 nuclei [5]) was 0.13 fmole ^125I-ligand/cell/minute.

With “disulphide linked meta-^127I/^125I-iodoHoechst-transferrin conjugate: meta-^127I/^125I-iodoHoechst conjugated to thiolated transferrin via a disulphide linkage (Example 14, FIG. 2)” the “dose required to produce … per cell (D37)” value (K562 cells [3]) was 6.0 μCi/ml, the “rate of increase of cell-associated ^125I-activity” value (K562 cells [4]; first 4 hours of incubation) was “approximately 7.2 fmoles ^125I-ligand/cell/minute” and the “rate of increase of cell-associated ^125I-activity” value (K562 cells [4]; [8]) was “approximately 6.1 fmoles ^125I-ligand/cell/minute”. The “rate of increase of nuclear-associated ^125I-activity” value (K562 nuclei [5]) was 0.21 fmole ^125I-ligand/cell/minute.

In the case of `Cc1c2oc3c(C)ccc(C(=O)N[C@@H]4C(=O)N[C@H](C(C)C)C(=O)N5CCC[C@H]5C(=O)N(C)CC(=O)N(C)[C@@H](C(C)C)C(=O)O[C@@H]4C)c3nc-2c(C(=O)N[C@@H]2C(=O)N[C@H](C(C)C)C(=O)N3CCC[C@H]3C(=O)N(C)CC(=O)N(C)[C@@H](C(C)C)C(=O)O[C@@H]2C)c(N)c1=O` [Actinomycin D] (I: T[dV]P[Sar][NMeV] / II: T[dV]P[Sar][NMeV]; ester I:1-I:C, II:1-II:C; linker I:N-II:N via Actinocin(9to1)), the “association constant for equilibrium binding to DNA (affinity)” value (DNA) is given as “about 10^6 M^−1”.

With “acylhydrazone linked transferrin-ortho-iodoHoechst conjugate: transferrin linked to ortho-iodoHoechst via an acylhydrazone linkage, conjugation number 1.5” the “nuclear fluorescence in K562 cell nuclei” value (K562 nuclei [7]; conjugation number 1.5, 24 hours at 37° C., then 200 Jm^−2 UVA) was “significant fluorescence” and the “inhibition of nuclear fluorescence” value (K562 nuclei [7]; in the presence of 100-fold molar excess unmodified transferrin) was “largely inhibited”.

Source: patent publication US8097238B2, “Cell targeting conjugates” (Peter MacCallum Cancer Institute, priority 2004, dated 2012)
